Patent US20170035894A1, “DRUG DELIVERY CONJUGATES FOR TREATING RESISTANT CANCER AND FOR USE IN COMBINATION THERAPY” (ENDOCYTE, INC., priority 2014, published 2017)
Where two headings read alike, the source gives them in different places.

Columns and labels:
LU1147 NSCLC tumors = test: Huprime NSCLC PDX tumor model; type: in vivo, Balb/c nu/nu mice; conditions: combined with Docetaxel (one dose of 15 mg/kg)
Method: (§1) Female Balb/c nu/nu mice were fed ad libitum with folate-deficient chow (Harlan diet #TD01013) for the duration of the experiment. Primary human NSCLC models LU1147 or LU2505 fragments (2-4 mm in diameter) were inoculated subcutaneously at the right flank of each mouse. Mice were randomized into experimental groups of 7 mice and test articles were injected through the lateral tail vein under sterile conditions in a volume of 200 μL of phosphate-buffered saline (PBS). These studies were performed at Crown Bioscience (Beijing) Inc., Ground Floor, Light Muller Building, Changping Sector of Zhongguancun Scientific Park, No. 21 Huoju Road, Changping District, Beijing, P.R. China.
(§2) Growth of each s.c. tumor was followed by measuring the tumor two times per week until a volume of 1200 mm^3 was reached. Tumors were measured in two perpendicular directions using Vernier calipers, and their volumes were calculated as 0.5×L×W^2, where L=measurement of longest axis in mm and W=measurement of axis perpendicular to L in mm.

LU2505 NSCLC tumors = test: Huprime NSCLC PDX tumor model; type: in vivo, Balb/c nu/nu mice; conditions: in combination with Docetaxel
Method: as §1, §2

KB cells = type: cell-based, human
Method: METHOD. Inhibition of Cellular DNA Synthesis. The compounds described herein were evaluated using an in vitro cytotoxicity assay that predicts the ability of the drug to inhibit the growth of folate receptor-positive cells, such as KB cells, RAW264.7 macrophages, and the like. It is to be understood that the choice of cell type can made on the basis of the susceptibility of those selected cells to the drug that forms the conjugate. The test compounds were comprised of folate linked to a respective chemotherapeutic drug, as prepared according to the processes described herein. The test cells were exposed to varying concentrations of folate-drug conjugate, and also in the absence or presence of at least a 100-fold excess of folic acid to assess activity as being specific to folate receptor mediation.
Conjugates of cytotoxic drugs described herein are active against KB cells. The activity is mediated by the folate receptor as indicated by competition experiments using co-administered folic acid. KB cells were exposed for up to 7 h at 37° C. to the indicated concentrations of folate-drug conjugate in the absence or presence of at least a 100-fold excess of folic acid. The cells were then rinsed once with fresh culture medium and incubated in fresh culture medium for 72 hours at 37° C. Cell viability was assessed using a ^3H-thymidine incorporation assay. For compounds described herein, dose-dependent cytotoxicity was generally measurable, and in most cases, the IC50 values (concentration of drug conjugate required to reduce ^3H-thymidine incorporation into newly synthesized DNA by 50%) are in the low nanomolar range.
METHOD. In vitro activity against various cancer cell lines. IC50 values were generated for various cell lines. Cells were heavily seeded in 24-well Falcon plates and allowed to form nearly confluent monolayers overnight. Thirty minutes prior to the addition of the test compound, spent medium was aspirated from all wells and replaced with fresh folate-deficient RPMI medium (FFRPMI). A subset of wells were designated to receive media containing 100 μM folic acid. The cells in the designated wells were used to determine the targeting specificity. Without being bound by theory it is believed herein that the cytotoxic activity produced by test compounds in the presence of excess folic acid, i.e. where there is competition for FR binding, corresponds to the portion of the total activity that is unrelated to FR-specific delivery. Following one rinse with 1 mL of fresh FFRPMI containing 10% heat-inactivated fetal calf serum, each well received 1 mL of medium containing increasing concentrations of test compound (4 wells per sample) in the presence or absence of 100 μM free folic acid as indicated. Treated cells were pulsed for 2 h at 37° C., rinsed 4 times with 0.5 mL of media, and then chased in 1 mL of fresh medium up to 70 h. Spent medium was aspirated from all wells and replaced with fresh medium containing 5 μCi/mL ^3H-thymidine. Following a further 2 h 37° C. incubation, cells were washed 3 times with 0.5 mL of PBS and then treated with 0.5 mL of ice-cold 5% trichloroacetic acid per well. After 15 min, the trichloroacetic acid was aspirated and the cell material solubilized by the addition of 0.5 mL of 0.25 N sodium hydroxide for 15 min. A 450 μL aliquot of each solubilized sample was transferred to a scintillation vial containing 3 mL of Ecolume scintillation cocktail and then counted in a liquid scintillation counter. Final results are expressed as the percentage of ^3H-thymidine incorporation relative to untreated controls.

MDA-MB-231 tumors = test: TNBC Tumor Assay, s.c. MDA-MB-231 xenografts; type: in vivo, nu/nu mice
Text: METHOD. TNBC Tumor Assay. Triple negative breast cancer (TNBC) is a subtype characterized by lack of gene expression for estrogen, progesterone and Her2/neu. TNBC is difficult to treat, and the resulting death rate in patients is reportedly disproportionately higher than for any other subtype of breast cancer. A TNBC xenograft model was generated in an analogous way to the KB and M109 models described herein by implanting MDA-MB-231 breast cancer cells in nu/nu mice. Dosing was initiated when the s.c. tumors have an average volume between 110-150 (generally 130) mm^3 (t0), typically 17 days post tumor inoculation (PTI). Test animals (5/group) were injected i.v., generally three times a week (TIW), for 2-3 weeks with varying doses, such as with 1 μmol/kg to 5 μmol/kg, of the drug delivery conjugate or with an equivalent dose volume of PBS (control), unless otherwise indicated. Dosing solutions were prepared fresh each day in PBS and administered through the lateral tail vein of the mice.

[1] = EC1456 2 μmol/kg two times a week for two weeks
[2] = EC1456 4 μmol/kg once a week for two weeks
[3] = difference in IC50 between competed and non-competed group

CCCC(=O)OCN(C(=O)[C@@H](NC(=O)[C@H]1CCCCN1C)C(C)CC)[C@H](C[C@@H](OC(C)=O)c1nc(C(=O)N[C@@H](Cc2ccc(O)cc2)C[C@H](C)C(=O)NNC(=O)OCCSSC[C@@H](NC(=O)[C@H](CCC(=O)NC[C@H](O)[C@@H](O)[C@H](O)[C@H](O)CO)NC(=O)[C@@H](CCC(=O)O)NC(=O)[C@H](CCC(=O)NC[C@H](O)[C@@H](O)[C@H](O)[C@H](O)CO)NC(=O)[C@@H](CCC(=O)O)NC(=O)[C@H](CCC(=O)NC[C@H](O)[C@@H](O)[C@H](O)[C@H](O)CO)NC(=O)CC[C@@H](NC(=O)c2ccc(NCc3cnc4nc(N)[nH]c(=O)c4n3)cc2)C(=O)O)C(=O)O)cs1)C(C)C (stereo in doubt) [EC1456]
PRs (LU1147 NSCLC tumors; [1]): 5
cures (LU1147 NSCLC tumors; [1]): 2
PRs (LU1147 NSCLC tumors; [2]): 5
cures (LU1147 NSCLC tumors; [2]): 2
cures (LU2505 NSCLC tumors; [1]): 100%
cures (LU2505 NSCLC tumors; [2]): 100%
IC50 (KB cells; FR expression +++, read-out: Activity (IC50)): 2.3 nM
IC50 (KB cells; IC50 when competed with excess folic acid, read-out: 50% competition (nM) (c)): 1420 nM
IC50 (KB cells; as determined by thymidine incorporation, read-out: In vitro IC50 (nM) (b)): 1.5 nM
In vitro specificity (fold) (d) (KB cells; [3]): 944 fold
specificity for the folate receptor as determined by folic acid competition (KB cells; [3]): ca. 1000 fold
Competable up to 100 nM (KB cells; folic acid competition): Yes
improvement in specificity compared to comparator compound EC0531 (KB cells; folic acid competition): 4 fold
tumor regrowth (MDA-MB-231 tumors; 2 μmol/kg i.v. TIW 2 weeks, observation window nearly 135 days): regrowth did not occur
complete responses (tumor volume reduced to zero) (MDA-MB-231 tumors; 2 μmol/kg intravenous, three times per week, 2 consecutive weeks): 4 of 5
